Values after ≈ are worked out from the molar mass of the structure shown.
Tests used:
L1210 [1] = assay: Antiproliferative activity against mouse L1210 cells assessed as inhibition of cell growth; type: functional; details: L1210, read-out: ED50
PC-3 [2] = assay: Antiproliferative activity against human PC-3 cells assessed as inhibition of cell growth; type: functional, cell-based
MDA-MB-231 = assay: Antiproliferative activity against human MDA-MB-231 cells assessed as inhibition of cell growth; type: functional, cell-based
KB [3] = assay: Antiproliferative activity against vincristine-sensitive human KB cells assessed as inhibition of cell growth; type: functional, cell-based
HCT-116 = assay: Antiproliferative activity against human HCT-116 cells assessed as inhibition of cell growth; type: functional, cell-based
A549 [4] = assay: Antiproliferative activity against human A549 cells assessed as inhibition of cell growth; type: functional, cell-based
MCF7 [5] = assay: Antiproliferative activity against human MCF7 cells assessed as inhibition of cell growth; type: functional, cell-based
[6] = Antiproliferative activity against vincristine-resistant human KB cells assessed as inhibition of cell growth; type: functional, cell-based
HT-29 [7] = assay: Antiproliferative activity against human HT-29 cells assessed as inhibition of cell growth; type: functional, cell-based
HT-29 [8] = assay: Antiproliferative activity against human HT-29 cells assessed as inhibition of cell growth incubated for 48 hrs by SRB assay; type: functional, cell-based; details: HT-29, time 48 hrs, read-out: ED50 (the source's name)
PC-3 [9] = assay: Antiproliferative activity against human PC-3 cells assessed as inhibition of cell growth incubated for 48 hrs by MTT assay; type: functional, cell-based; details: PC-3, 48 h
A549 [10] = assay: Antiproliferative activity against human A549 cells assessed as inhibition of cell growth incubated for 48 hrs by MTT assay; type: functional, cell-based; details: A549, 48 h
K562 = assay: Antiproliferative activity against human K562 cells assessed as inhibition of cell growth incubated for 48 hrs by MTT assay; type: functional, cell-based; details: K562, 48 h
BT-549 = assay: Antiproliferative activity against human BT-549 cells assessed as inhibition of cell growth incubated for 48 hrs by MTT assay; type: functional, cell-based; details: BT-549, 48 h
NCI-H460 = assay: Antiproliferative activity against human NCI-H460 cells assessed as inhibition of cell growth by MTT assay; type: functional, cell-based
HepG2 [11] = assay: Antiproliferative activity against human HepG2 cells assessed as inhibition of cell growth by MTT assay; type: functional, cell-based
4T1 = assay: Antiproliferative activity against mouse 4T1 cells assessed as inhibition of cell growth incubated for 48 hrs by MTT assay; type: functional, cell-based; details: 4T1, 48 h
MCF7 [12] = assay: Antiproliferative activity against human MCF7 cells assessed as inhibition of cell growth incubated for 48 hrs by MTT assay; type: functional, cell-based; details: MCF7, 48 h
HeLa = assay: Antiproliferative activity against human HeLa cells assessed as inhibition of cell growth incubated for 48 hrs by MTS assay; type: functional, cell-based
A549 [13] = assay: Antiproliferative activity against human A549 cells assessed as inhibition of cell growth incubated for 48 hrs by MTS assay; type: functional, cell-based; details: A549, 48 h
SMMC-7721 [14] = assay: Antiproliferative activity against human SMMC-7721 cells assessed as inhibition of cell growth incubated for 48 hrs by MTS assay; type: functional, cell-based; details: SMMC-7721, 48 h
HepG2 [15] = assay: Antiproliferative activity against human HepG2 cells assessed as inhibition of cell growth incubated for 48 hrs by MTS assay; type: functional, cell-based; details: HepG2, 48 h
SK-BR-3 = assay: Antiproliferative activity against human SK-BR-3 cells assessed as inhibition of cell growth incubated for 48 hrs by MTT assay; type: functional, cell-based; details: SK-BR-3, 48 h
HL-60 = assay: Antiproliferative activity against human HL-60 cells assessed as inhibition of cell growth incubated for 48 hrs by MTT assay; type: functional, cell-based; details: HL-60, 48 h
SMMC-7721 [16] = assay: Antiproliferative activity against human SMMC-7721 cells assessed as inhibition of cell growth incubated for 48 hrs by MTT assay; type: functional, cell-based; details: SMMC-7721, 48 h
PANC-1 = assay: Antiproliferative activity against human PANC-1 cells assessed as inhibition of cell growth incubated for 48 hrs by MTT assay; type: functional, cell-based; details: PANC-1, 48 h
KB [17] = assay: Antiproliferative activity against drug-sensitive human KB cells assessed as inhibition of cell growth; type: functional, cell-based
Jurkat = assay: Antiproliferative activity against human Jurkat cells assessed as inhibition of cell growth; type: functional, cell-based
P388 = assay: Antiproliferative activity against mouse P388 cells assessed as inhibition of cell growth; type: functional, cell-based
HepG2 [18] = assay: Antiproliferative activity against human HepG2 cells assessed as inhibition of cell growth incubated for 24 hrs by colorimetric method; type: functional, cell-based; details: HepG2, 24 h
AGS = assay: Antiproliferative activity against human AGS cells assessed as inhibition of cell growth incubated for 24 hrs by MTT assay; type: functional, cell-based
[19] = Antiproliferative activity against human BC cells assessed as inhibition of cell growth incubated for 24 hrs by MTT assay; type: functional, cell-based
L1210 [20] = assay: Antiproliferative activity against mouse L1210 cells assessed as inhibition of cell growth incubated for 24 hrs by MTT assay; type: functional, cell-based; details: L1210, 24 h
HepG2 [21] = assay: Antiproliferative activity against human HepG2 cells assessed as inhibition of cell growth incubated for 24 hrs by MTT assay; type: functional, cell-based; details: HepG2, 24 h

SMILES: CN1C[C@H](c2c[nH]c3cc(Br)ccc23)NC[C@H]1c1c[nH]c2cc(Br)ccc12
- EC50 (L1210 [1]): 10 µg/mL (≈ 20.5 µM)

SMILES: C/C=C1/CN2CC[C@]34C(=C(CN5c6ccccc6[C@@]67CCN8CCC[C@]9(CC[C@]56[C@H](C(=O)OC)C9)[C@H]87)[C@H]1C[C@H]23)Nc1ccccc14
- IC50 (PC-3 [2]): 1300 nM
- IC50 (MDA-MB-231): 1300 nM
- IC50 (KB [3]): 1300 nM
- IC50 (HCT-116): 1300 nM
- IC50 (A549 [4]): 1300 nM
- IC50 (MCF7 [5]): 1300 nM
- IC50 [6]: 1300 nM
- IC50 (HT-29 [7]): 1300 nM

SMILES: C/C=C1/C[N+]2(C)CC[C@@]34C[C@H]5[C@@H]6C[C@H]7c8c(c9ccccc9n8C)C[C@@H]([C@@H]6CO[C@@]5(C)O[C@@]35[C@@H]2C[C@@H]1[C@@H](C(=O)OC)N5c1ccccc14)N7C (some centres undefined)
- EC50 (HT-29 [8]): 6500 nM

SMILES: CC[C@]12C=C[C@H](C3=CC4CC(C(=O)OC)=C5Nc6cc(OC)ccc6[C@@]56CCN(C3)[C@@H]46)N3CC[C@]4(C(=C(C(=O)OC)C1)Nc1cc(OC)ccc14)[C@@H]32 (some centres undefined)
- IC50 (PC-3 [9]): 3440 nM
- IC50 (A549 [10]): 11400 nM
- IC50 (K562): 10700 nM
- IC50 (BT-549): 890 nM

SMILES: COC(=O)c1[nH]cc2c1[C@]1(CNc3ccc(Cl)cc31)c1[nH]c3ccc(Cl)cc3c1-2
- IC50 (NCI-H460): 15 µg/mL (≈ 35.4 µM)
- IC50 (HepG2 [11]): 6 µg/mL (≈ 14.1 µM)

SMILES: C/C=C1/CN(C)[C@H]2Cc3c([nH]c4ccccc34)[C@H](c3cc4[nH]c5c(c4cc3OC)CCN3C[C@@H]4C[C@H](CC)[C@H]3[C@@]5(C(=O)OC)C4)C[C@@H]1C2C(=O)OC (some centres undefined)
- IC50 (4T1): 1420 nM
- IC50 (MCF7 [12]): 990 nM

SMILES: CC[C@]12CCCn3c(Cc4cc5c6n4CCC[C@]6(CC)CCC(=O)Nc4ccccc4-5)cc(c31)-c1ccccc1NC(=O)CC2
- IC50 (HeLa): 4400 nM
- IC50 (A549 [13]): 16200 nM
- IC50 (SMMC-7721 [14]): 4310 nM
- IC50 (HepG2 [15]): 7020 nM

SMILES: COC(=O)C1=CN2CCc3c([nH]c4ccccc34)[C@@H]2C[C@@H]1C1=CO[C@@H]([C@H]2[C@@H]3CCN4CC[C@@]5(C(=C3C(=O)OC)Nc3ccccc35)[C@@H]24)C[C@@H]1C
- IC50 (A549 [4]): 3.09 nM
- IC50 (HT-29 [7]): 2.05 nM

SMILES: CCC12CCCN3CC[C@@]4(OC)c5cc([C@@H]6C[C@@]7(CC)CCCN8CCc9c(n6c6ccccc96)[C@H]87)c(O)cc5N(CCC1)C324 (some centres undefined)
- IC50 (A549 [10]): 500 nM
- IC50 (SK-BR-3): 500 nM
- IC50 (HL-60): 500 nM
- IC50 (SMMC-7721 [16]): 500 nM
- IC50 (PANC-1): 500 nM
- IC50 (MCF7 [12]): 500 nM

SMILES: C/C=C1/CN2CC[C@]34c5ccccc5N5[C@H](C(=O)OC)[C@H]1C[C@H]2[C@@]53Oc1c4cc2c(c1O)C(=O)O[C@@]13[C@@H]4C[C@H]5/C(=C\C)CN4CC[C@@]21c1ccccc1N3[C@@H]5C(=O)OC
- IC50 (KB [17]): 3.2 µg/mL (≈ 4.03 µM)
- IC50 (Jurkat): 3.7 µg/mL (≈ 4.65 µM)
- IC50 [6]: 2 µg/mL

SMILES: COc1cc2c(cc1CC(C(C)=O)[C@@H]1C[C@H]3c4c(c5ccccc5n4C)C[C@@H]([C@@H]1CO)N3C)c1c(n2C)[C@@H]2C[C@H]3C(C(C)=O)=COC[C@H]3[C@H](C1)N2C (some centres undefined)
- IC50 (P388): 12.3 µg/mL (≈ 17.4 µM)

SMILES: COC(=O)/C1=C/c2c([nH]c3ccccc23)/C(C(=O)OC)=C\c2c1[nH]c1ccccc21 [CAULERPIN]
- IC50 (HepG2 [18]): 24.6 µg/mL (≈ 61.7 µM)

SMILES: O=C1N[C@@H](c2c[nH]c3cc(Br)ccc23)CN=C1c1c[nH]c2cc(Br)ccc12 [HAMACANTHIN A]
- IC50 (AGS): 1.1 µg/mL (≈ 2.26 µM)
- IC50 [19]: 10.7 µg/mL (≈ 22 µM)
- IC50 (L1210 [20]): 1.1 µg/mL (≈ 2.26 µM)
- IC50 (HepG2 [21]): 12.5 µg/mL (≈ 25.7 µM)

— ChEMBL document CHEMBL5331060, “Bisindole natural products: A vital source for the development of new anticancer drugs” (Eur J Med Chem, 2022)
